This note sets out measurements from patent publication US7956190B2, “Benzimidazole amido derivatives as kinase inhibitors” (Hoffmann-La Roche Inc., priority 2007, dated 2011).

The test relates to HCT 116 cells. Briefly: CellTiter-Glo Assay in HCT 116 Cells. The format is cell-based. As to conditions: HCT 116 human colon carcinoma cells, 5 days (120 h) incubation, CellTiter-Glo luminescence, tested in triplicate. The source says: CellTiter-Glo™ Assay in HCT 116 Cells
The CellTiter-Glo™ Luminescent Cell Viability Assay (Promega) is a homogeneous method of determining the number of viable cells in culture based on quantitation of the ATP present, which signals the presence of metabolically active cells.
HCT 116 cells (human colon carcinoma, ATCC-No. CCl-247) were cultivated in RPMI 1640 medium with GlutaMAX™ I (Invitrogen, Cat-No. 61870-010), 5% Fetal Calf Serum (FCS, Sigma Cat-No. F4135 (FBS)); 100 Units/ml penicillin/100 μg/ml streptomycin (=Pen/Strep from Invitrogen Cat. No. 15140). For the assay the cells were seeded in 384 well plates, 1000 cells per well, in the same medium. The next day the test compounds were added in various concentrations ranging from 30 μM to 0.0015 μM (10 concentrations, 1:3 diluted). After 5 days the CellTiter-Glo™ assay was done according to the instructions of the manufacturer (CellTiter-Glo™ Luminescent Cell Viability Assay, from Promega). In brief: the cell-plate was equilibrated to room temperature for approximately 30 minutes and than the CellTiter-Glo™ reagent was added. The contents were carefully mixed for 15 minutes to induce cell lysis. After 45 minutes the luminescent signal was measured in Victor 2, (scanning multiwell spectrophotometer, Wallac).
• Medium: RPMI 1640 with GlutaMAX™ I (Invitrogen, Cat-Nr. 61870), 5% FCS (Sigma Cat.-No. F4135), Pen/Strep (Invitrogen, Cat No. 15140). • HCT116 (ATCC-No. CCl-247): 1000 cells in 60 μl per well of 384 well plate (Greiner 781098, μClear-plate white) • After seeding incubate plates 24 h at 37° C., 5% CO2 2nd. Day: Induction (Treatment with Compounds, 10 Concentrations):
In order to achieve a final concentration of 30 μM as highest concentration 3.5 μl of 10 mM compound stock solution were added directly to 163 μl media. Then step e) of the dilution procedure described below, was followed.
In general terms: In ATP-based viability assays light output follows the ATP content of the culture.
Usually IC50 stands for the concentration at which inhibition is half-maximal. `CC(C)(OC(=O)Nc1cccc2nc(-c3c(NC[C@@H](O)c4ccccc4)cc[nH]c3=O)[nH]c12)C(Cl)(Cl)Cl` [Example C-3, {2-[4-((S)-2-Hydroxy-2-phenyl-ethylamino)-2-oxo-1,2-dihydro-pyridin-3-yl]-3H-benzoimidazol-4-yl}-carbamic acid 2,2,2-trichloro-1,1-dimethyl-ethyl ester] showed an IC50 of 1 to 15 µM.
For `O=C(Nc1cccc2nc(-c3c(NC[C@@H](O)c4ccccc4)cc[nH]c3=O)[nH]c12)c1ccc(C(F)(F)F)cc1` [Example A-15, N-{2-[4-((S)-2-Hydroxy-2-phenyl-ethylamino)-2-oxo-1,2-dihydro-pyridin-3-yl]-3H-benzoimidazol-4-yl}-4-trifluoromethyl-benzamide] the value was 1 to 15 µM; for `O=C(Nc1cccc2nc(-c3c(NCC(O)c4ccccc4)cc[nH]c3=O)[nH]c12)c1ccccc1Cl` (stereo not shown) [Example B-10, 2-Chloro-N-{2-[4-(2-hydroxy-2-phenyl-ethylamino)-2-oxo-1,2-dihydro-pyridin-3-yl]-3H-benzoimidazol-4-yl}-benzamide], 1 to 15 µM; for `O=C(Nc1ccc(F)cc1)Nc1cccc2nc(-c3c(NC[C@@H](O)c4ccccc4)cc[nH]c3=O)[nH]c12` [Example D-3, 1-(4-Fluoro-phenyl)-3-{2-[4-((S)-2-hydroxy-2-phenyl-ethylamino)-2-oxo-1,2-dihydro-pyridin-3-yl]-3H-benzoimidazol-4-yl}-urea], 3.61 µM.
For `O=C(COc1ccc(Cl)cc1)Nc1cccc2nc(-c3c(NC[C@@H](O)c4ccccc4)cc[nH]c3=O)[nH]c12` [Example B-11, 2-(4-Chloro-phenoxy)-N-{2-[4-((S)-2-hydroxy-2-phenyl-ethylamino)-2-oxo-1,2-dihydro-pyridin-3-yl]-3H-benzoimidazol-4-yl}-acetamide] the value was 1 to 15 µM.
For `CC(C)OC(=O)Nc1cccc2nc(-c3c(NC[C@@H](O)c4ccccc4)cc[nH]c3=O)[nH]c12` [Example C-6, {2-[4-((S)-2-Hydroxy-2-phenyl-ethylamino)-2-oxo-1,2-dihydro-pyridin-3-yl]-3H-benzoimidazol-4-yl}-carbamic acid isopropyl ester] the value was 1 to 15 µM; for `O=C(Nc1cccc2nc(-c3c(NC[C@@H](O)c4ccccc4)cc[nH]c3=O)[nH]c12)c1ccc(Cl)cc1Cl` [Example B-16, 2,4-Dichloro-N-{2-[4-((S)-2-hydroxy-2-phenyl-ethylamino)-2-oxo-1,2-dihydro-pyridin-3-yl}-3H-benzoimidazol-4-yl]-benzamide], 1 to 15 µM.
With `CC(C)(C)C(=O)Nc1cccc2nc(-c3c(NC[C@@H](O)c4ccccc4)cc[nH]c3=O)[nH]c12` [Example B-3, N-{2-[4-((S)-2-Hydroxy-2-phenyl-ethylamino)-2-oxo-1,2-dihydro-pyridin-3-yl]-3H-benzoimidazol-4-yl}-2,2-dimethyl-propionamide], the IC50 lay within 1 to 15 µM.
With `COc1ccc(C(=O)Nc2cccc3nc(-c4c(NCc5ccccc5)cc[nH]c4=O)[nH]c23)cc1` [Example A-3, N-[2-(4-Benzylamino-2-oxo-1,2-dihydro-pyridin-3-yl)-3H-benzoimidazol-4-yl]-4-methoxy-benzamide] the figure was 1 to 15 µM; with `O=C(Nc1cccc2nc(-c3c(NCc4cccc(Cl)c4)cc[nH]c3=O)[nH]c12)c1ccccc1` [Example B-2, N-{2-[4-(3-Chloro-benzylamino)-2-oxo-1,2-dihydro-pyridin-3-yl]-3H-benzoimidazol-4-yl}-benzamide], 1 to 15 µM; with `COc1cccc(C(=O)Nc2cccc3nc(-c4c(NC[C@@H](O)c5ccccc5)cc[nH]c4=O)[nH]c23)c1` [Example B-18, N-{2-[4-((S)-2-Hydroxy-2-phenyl-ethylamino)-2-oxo-1,2-dihydro-pyridin-3-yl]-3H-benzoimidazol-4-yl}-3-methoxy-benzamide], 1 to 15 µM.
For `COc1ccc(C(=O)Nc2cccc3nc(-c4c(NCc5cccc(Cl)c5)cc[nH]c4=O)[nH]c23)cc1` [Example A-8, N-{2-[4-(3-Chloro-benzylamino)-2-oxo-1,2-dihydro-pyridin-3-yl]-3H-benzoimidazol-4-yl}-4-methoxy-benzamide], the concentration for half-maximal inhibition (IC50) was 1 to 15 µM.
`COc1cccc(NC(=O)Nc2cccc3nc(-c4c(NC[C@@H](O)c5ccccc5)cc[nH]c4=O)[nH]c23)c1` [Example D-6, 1-{2-[4-((S)-2-Hydroxy-2-phenyl-ethylamino)-2-oxo-1,2-dihydro-pyridin-3-yl]-3H-benzoimidazol-4-yl}-3-(3-methoxy-phenyl)-urea] gave a concentration for half-maximal inhibition (IC50) of 1 to 15 µM.
With `O=C(Nc1cccc2nc(-c3c(NC[C@@H](O)c4ccccc4)cc[nH]c3=O)[nH]c12)c1cccc(F)c1` [Example B-15, 3-Fluoro-N-{2-[4-((S)-2-hydroxy-2-phenyl-ethylamino)-2-oxo-1,2-dihydro-pyridin-3-yl]-3H-benzoimidazol-4-yl}-benzamide] the figure was 6.92 µM; with `O=C(Nc1ccccc1)Nc1cccc2nc(-c3c(NC[C@@H](O)c4ccccc4)cc[nH]c3=O)[nH]c12` [Example D-5, 1-{2-[4-((S)-2-Hydroxy-2-phenyl-ethylamino)-2-oxo-1,2-dihydro-pyridin-3-yl]-3H-benzoimidazol-4-yl}-3-phenyl-urea], 1 to 15 µM; with `COC(=O)Nc1cccc2[nH]c(-c3c(NC[C@@H](O)c4cccc(Cl)c4)cc[nH]c3=O)nc12` [Example C-7, (2-{4-[(S)-2-(3-Chloro-phenyl)-2-hydroxy-ethylamino]-2-oxo-1,2-dihydro-pyridin-3-yl}-1H-benzoimidazol-4-yl)-carbamic acid methylester], 1 to 15 µM.
